Assay results taken from the supplement of paper PMC10627819.

What was measured:
[1] = tested on: B. subtilis 168; test: fitness (endpoint OD595 vs no drug) (fraction); higher = more growth
Procedure, shortened: (§1)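 Background-subtracted growth curves were the basis for fitness, taken as the optical density at entry into stationary phase over the robust mean of no-drug control wells. A cap of 1 was applied. The curves came from OD595 readings every 30 min for 14 h at 37 °C, in 384-well plates seeded at OD595 0.01 with 30 µl, or 55 µl for S. pneumoniae.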

[2] = tested on: S. pneumoniae D39V; test: as above
Procedure, shortened: as §1

[3] = tested on: S. aureus DSM 20231; test: as above
Procedure, shortened: as §1

[4] = tested on: S. aureus Newman; test: as above
Procedure, shortened: as §1

[5] = tested on: B. subtilis 168; test: Bliss interaction score (quartile over a dose matrix) (fitness difference); higher = more antagonism (negative = synergy)
Procedure, shortened: (§2)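 Fitness was defined as normalised growth: OD595 at the start of stationary phase divided by the plate's robust no-drug mean and capped at 1. Single-drug fitness was inferred from combination measurements. The Bliss score is observed fitness minus the product of the single-drug values, summarised by quartiles across technical, biological and donor/recipient replicates.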

[6] = tested on: S. pneumoniae D39V; test: as above
Procedure, shortened: as §2

[7] = tested on: S. aureus DSM 20231; test: as above
Procedure, shortened: as §2

[8] = tested on: S. aureus Newman; test: as above
Procedure, shortened: as §2
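Wherever Bliss interaction score (quartile over a dose matrix) is given: first quartile when negative (synergy) and third quartile when positive (antagonism).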

C[C@@H]1O[C@@H]1P(=O)(O)O [Fosfomycin] + CC1=C\[C@@H](O)CC(=O)Cc2nc(co2)C(=O)N2CCC=C2C(=O)O[C@H](C(C)C)[C@H](C)/C=C/C(=O)NC\C=C\1 [Virginiamycin M1]
fitness
Settings | partner 0.0625 µg/mL | partner 0.125 µg/mL | partner 0.25 µg/mL | partner 0.5 µg/mL | partner 1 µg/mL | partner 2 µg/mL
[1], first compound 1.562 µg/mL | 0.728 | 0.688 | 0.727 | – | – | –
[1], first compound 3.124 µg/mL | 0.603 | 0.565 | 0.576 | – | – | –
[1], first compound 6.248 µg/mL | 0.488 | 0.43 | 0.427 | – | – | –
[2], first compound 1.25 µg/mL | – | – | – | 0.958 | 0.944 | 0.928
[2], first compound 2.5 µg/mL | – | – | – | 0.987 | 0.956 | 0.905
[2], first compound 5 µg/mL | – | – | – | 0.852 | 0.831 | 0.854
[3], first compound 0.781 µg/mL | 0.755 | 0.783 | 0.783 | – | – | –
[3], first compound 1.562 µg/mL | 0.533 | 0.581 | 0.605 | – | – | –
[3], first compound 3.124 µg/mL | 0.487 | 0.49 | 0.506 | – | – | –
[4], first compound 0.781 µg/mL | 0.538 | 0.567 | 0.555 | – | – | –
[4], first compound 1.562 µg/mL | 0.503 | 0.511 | 0.528 | – | – | –
[4], first compound 3.124 µg/mL | 0.173 | 0.168 | 0.149 | – | – | –

fitness, one replicate
Settings | first compound 0.781 µg/mL | first compound 1.25 µg/mL | first compound 1.562 µg/mL | first compound 2.5 µg/mL | first compound 3.124 µg/mL | first compound 5 µg/mL
[2], partner 0.15 µg/mL | – | 0.968 | – | 0.926 | – | 0.892
[2], partner 0.3 µg/mL | – | 0.89 | – | 0.908 | – | 0.897
[3], partner 0.5 µg/mL | 0.847 | – | 0.614 | – | 0.412 | –
[3], partner 1 µg/mL | 0.771 | – | 0.643 | – | 0.386 | –
[4], partner 0.5 µg/mL | 0.626 | – | 0.557 | – | 0.299 | –
[4], partner 1 µg/mL | 0.614 | – | 0.478 | – | 0.182 | –
[4], partner 2 µg/mL | 0.463 | – | 0.297 | – | 0.0494 | –

Settings | Bliss interaction score
[5] | 0.0317
[6] | -0.0376
[7] | -0.0507
[8] | -0.0636

C[C@@H]1O[C@@H]1P(=O)(O)O [Fosfomycin] + CCN(CC)CCOC(=O)c1ccc(N)cc1 [Procaine]
fitness
Settings | partner 85.5 µg/mL | partner 171 µg/mL | partner 342 µg/mL
[1], first compound 1.562 µg/mL | 0.711 | 0.704 | 0.646
[1], first compound 3.124 µg/mL | 0.592 | 0.554 | 0.576
[1], first compound 6.248 µg/mL | 0.377 | 0.372 | 0.322
[2], first compound 1.25 µg/mL | 0.979 | 0.97 | 0.924
[2], first compound 2.5 µg/mL | 0.951 | 0.921 | 0.905
[2], first compound 5 µg/mL | 0.81 | 0.827 | 0.813
[3], first compound 0.781 µg/mL | 0.736 | 0.812 | 0.833
[3], first compound 1.562 µg/mL | 0.603 | 0.64 | 0.634
[3], first compound 3.124 µg/mL | 0.427 | 0.513 | 0.489
[4], first compound 0.781 µg/mL | 0.576 | 0.54 | 0.562
[4], first compound 1.562 µg/mL | 0.535 | 0.553 | 0.516
[4], first compound 3.124 µg/mL | 0.198 | 0.197 | 0.162

Settings | Bliss interaction score
[5] | -0.0557
[6] | -0.029
[7] | -0.0626
[8] | 0.0813

C[C@@H]1O[C@@H]1P(=O)(O)O [Fosfomycin] + CN1C2=CC=CC=C2N=C3C1=CC=CC3=O [Pyocyanin]
fitness
Settings | partner 0.325 µg/mL | partner 0.65 µg/mL | partner 1.25 µg/mL | partner 1.3 µg/mL | partner 2.5 µg/mL | partner 5 µg/mL
[1], first compound 1.562 µg/mL | – | – | 0.671 | – | 0.632 | 0.536
[1], first compound 3.124 µg/mL | – | – | 0.59 | – | 0.588 | 0.471
[1], first compound 6.248 µg/mL | – | – | 0.465 | – | 0.412 | 0.376
[2], first compound 1.25 µg/mL | 0.992 | ≥ 1 | – | 0.774 | – | –
[2], first compound 2.5 µg/mL | 0.971 | 0.923 | – | 0.791 | – | –
[2], first compound 5 µg/mL | 0.837 | 0.899 | – | 0.745 | – | –
[3], first compound 0.781 µg/mL | – | – | 0.673 | – | 0.707 | 0.541
[3], first compound 1.562 µg/mL | – | – | 0.653 | – | 0.629 | 0.472
[3], first compound 3.124 µg/mL | – | – | 0.508 | – | 0.509 | 0.39
[4], first compound 0.781 µg/mL | – | – | 0.547 | – | 0.548 | 0.424
[4], first compound 1.562 µg/mL | – | – | 0.439 | – | 0.465 | 0.38
[4], first compound 3.124 µg/mL | – | – | 0.0851 | – | 0.142 | 0.24

Settings | Bliss interaction score
[5] | 0.072
[6] | 0.0461
[7] | 0.0453
[8] | 0.105

C[C@@H]1O[C@@H]1P(=O)(O)O [Fosfomycin] + CN(N=O)C(=O)N[C@@H](C=O)[C@@H](O)[C@H](O)[C@H](O)CO [Streptozotocin]
fitness
Settings | partner 0.15 µg/mL | partner 0.3 µg/mL | partner 0.6 µg/mL | partner 1.2 µg/mL | partner 2.4 µg/mL | partner 4.8 µg/mL
[1], first compound 1.562 µg/mL | 0.682 | 0.688 | 0.69 | – | – | –
[1], first compound 3.124 µg/mL | 0.609 | 0.588 | 0.579 | – | – | –
[1], first compound 6.248 µg/mL | 0.432 | 0.42 | 0.435 | – | – | –
[2], first compound 1.25 µg/mL | – | – | – | 0.898 | 0.934 | 0.952
[2], first compound 2.5 µg/mL | – | – | – | 0.899 | 0.923 | 0.952
[2], first compound 5 µg/mL | – | – | – | 0.732 | 0.703 | 0.747
[3], first compound 0.781 µg/mL | 0.717 | 0.627 | 0.549 | – | – | –
[3], first compound 1.562 µg/mL | 0.59 | 0.533 | 0.509 | – | – | –
[3], first compound 3.124 µg/mL | 0.476 | 0.441 | 0.292 | – | – | –
[4], first compound 0.781 µg/mL | 0.526 | 0.501 | 0.462 | – | – | –
[4], first compound 1.562 µg/mL | 0.491 | 0.455 | 0.342 | – | – | –
[4], first compound 3.124 µg/mL | 0.129 | 0.146 | 0.0801 | – | – | –

Settings | Bliss interaction score
[5] | -0.108
[6] | -0.0567
[7] | -0.0585
[8] | -0.0994

C[C@@H]1O[C@@H]1P(=O)(O)O [Fosfomycin] + CN[C@@H]1[C@H](O)[C@H](NC)[C@H]2O[C@@]3(O)C(=O)C[C@@H](C)O[C@H]3O[C@@H]2[C@H]1O [Spectinomycin]
fitness
Settings | partner 2 µg/mL | partner 4 µg/mL | partner 8 µg/mL | partner 16 µg/mL
[1], first compound 1.562 µg/mL | 0.657 | 0.662 | 0.601 | –
[1], first compound 3.124 µg/mL | 0.554 | 0.526 | 0.426 | –
[1], first compound 6.248 µg/mL | 0.431 | 0.4 | 0.212 | –
[2], first compound 1.25 µg/mL | – | 0.943 | 0.885 | 0.806
[2], first compound 2.5 µg/mL | – | 0.899 | 0.868 | 0.817
[2], first compound 5 µg/mL | – | 0.704 | 0.734 | 0.652
[3], first compound 0.781 µg/mL | – | 0.69 | 0.72 | 0.683
[3], first compound 1.562 µg/mL | – | 0.588 | 0.568 | 0.595
[3], first compound 3.124 µg/mL | – | 0.511 | 0.495 | 0.416
[4], first compound 0.781 µg/mL | – | 0.574 | 0.58 | 0.497
[4], first compound 1.562 µg/mL | – | 0.452 | 0.412 | 0.234
[4], first compound 3.124 µg/mL | – | 0.0691 | 0.0277 | 0.0028

fitness, one replicate
Settings | first compound 0.781 µg/mL | first compound 1.562 µg/mL | first compound 3.124 µg/mL
[3], partner 32 µg/mL | 0.692 | 0.564 | 0.268
[3], partner 64 µg/mL | 0.0413 | 0.0145 | 0.0077
[4], partner 32 µg/mL | 0.056 | 0.0135 | 0
[4], partner 64 µg/mL | 0.0367 | 0.0527 | 0.0276

Settings | Bliss interaction score
[5] | -0.107
[6] | 0.0537
[7] | -0.0508
[8] | -0.171
